Experimental data taken from US9610369B2, “Compound suitable for detection of vesicular acetylcholine transporter” (HAMAMATSU PHOTONICS K.K., priority 2013, dated 2017).

Columns and labels:
[1] = biological target: T1, vesicular acetylcholine transporters (Macaca mulatta, UniProt A0A1D5QJ59); experiment: Localization of [^11C]HAPT in individual sites of the brain (PET); assay type: in vivo; details: brain of Rhesus monkey, 13 sites checked, FIG. 3
T1 construct: Rhesus monkey having a body weight of about 5 kg was immobilized to PET apparatus; from tissue; host or cells: brain of living Rhesus monkey (in vivo PET)
T1 sequence (A0A1D5QJ59 1-532): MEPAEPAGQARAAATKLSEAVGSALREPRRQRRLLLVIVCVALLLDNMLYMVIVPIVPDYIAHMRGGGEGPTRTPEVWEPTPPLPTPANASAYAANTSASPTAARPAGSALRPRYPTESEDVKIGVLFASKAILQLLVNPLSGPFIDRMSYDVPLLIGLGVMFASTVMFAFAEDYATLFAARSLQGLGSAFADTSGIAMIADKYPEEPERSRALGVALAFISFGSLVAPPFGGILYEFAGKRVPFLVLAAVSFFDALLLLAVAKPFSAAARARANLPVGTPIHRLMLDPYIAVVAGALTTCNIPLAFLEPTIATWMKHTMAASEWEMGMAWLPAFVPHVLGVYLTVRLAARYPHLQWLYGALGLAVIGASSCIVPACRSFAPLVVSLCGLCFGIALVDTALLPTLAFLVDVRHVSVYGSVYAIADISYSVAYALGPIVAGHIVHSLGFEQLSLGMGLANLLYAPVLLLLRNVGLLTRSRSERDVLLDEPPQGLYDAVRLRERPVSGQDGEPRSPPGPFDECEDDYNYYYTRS
Experimental: (§1) Rhesus monkey having a body weight of about 5 kg was immobilized to PET apparatus (trade name, SHR7700 manufactured by Hamamatsu Photonics KK) without anesthesia. After transmission was measured for absorption correction, [^11C]HAPT was intravenously administered and dynamic measurement was performed for 180 minutes.
Localization of [^11C]HAPT in individual sites of the brain of Rhesus monkey was checked. The results of the cases of using (S,S)HAPT-A and (R,R)HAPT-A are shown in FIG. 3 (A); whereas the results of the cases of using (S,S)HAPT-B and (R,R)HAPT-B are shown in FIG. 3 (B).

[2] = biological target: T1, vesicular acetylcholine transporters; experiment: PET measurement of time-dependent change of [^11C]HAPT in brain ROIs; assay type: in vivo, Rhesus monkey (Macaca mulatta); details: brain of Rhesus monkey, FIG. 1; for binding to vesicular acetylcholine transporters: intravenous administration, dynamic PET 180 minutes
Experimental: as §1
In tomographic images obtained from a single individual by a nuclear magnetic resonance tomography apparatus (hereinafter, MRI), a region of interest (ROI) was determined and then, a time-dependent change of a labeled compound ([^11C]HAPT) in each ROI was obtained.

[3] = biological target: T1, vesicular acetylcholine transporters; experiment: Inhibition experiment with vesicular transporter inhibitor vesamicol (PET); assay type: in vivo, Rhesus monkey; details: L-(−)-vesamicol 1 mg/kg intravenously 30 minutes before tracer, FIG. 4 and 5
Experimental: Inhibition experiments were performed by using a vesicular transporter inhibitor (vesamicol). Specific procedure employed is as follows.
The cephalic vein or saphenous vein was secured as the route for intravenous administration to test animals and the femoral artery or posterior tibial artery was secured as the route for arterial blood sampling.
Thirty minutes before administration of [^11C]HAPT, L-(−)-vesamicol was intravenously administered in a dose of 1 mg/kg.
The amount of radioactivity of [^11C]HAPT before administration was measured. A total amount of [^11C]HAPT was intravenously administered from an indwelling needle placed in a test animal over about 30 seconds. Simultaneously with initiation of administration, Emission measurement (121 minutes, 55 frames in total including: 10 seconds 6 frames, 30 seconds 6 frames, 1 minute 12 frames, […], 5 minutes 6 frames) was started for monitoring.

Row | time to reach an equilibrium state from initiation of measurement ([2]; PET) | binding to vesicular acetylcholine transporters with vesamicol compared to control [3] | SMILES | localization in individual sites of the brain [1] | binding to vesicular acetylcholine transporters [2]
1 |  |  | Cc1cccc2c1C[C@@H](N1CCN(c3ccccc3N)CC1)[C@H](O)C2 [(R,R)[^11C]HAPT-A] | localized most significantly in the putamen | specifically bind to vesicular acetylcholine transporters
2 |  |  | Cc1cccc2c1C[C@@H](O)[C@H](N1CCN(c3ccccc3N)CC1)C2 [(R,R)[^11C]HAPT-B, (2R,3R)-3-(4-(2-aminophenyl)piperazin-1-yl)-8-[^11C]methyl-1,2,3,4-tetrahydronaphthalen-2-ol] | localized most significantly in the putamen | specifically binds to a vesicular acetylcholine transporter
3 | about 15 minutes | reduces | [11CH3]c1cccc2c1C[C@@H](O)[C@H](N1CCN(c3ccccc3N)CC1)C2 [(R,R)[^11C]HAPT-B, (2R,3R)-3-(4-(2-aminophenyl)piperazin-1-yl)-8-[^11C]methyl-1,2,3,4-tetrahydronaphthalen-2-ol] |  | specifically bind to vesicular acetylcholine transporters
4 |  |  | Cc1cccc2c1C[C@H](O)[C@@H](N1CCN(c3ccccc3N)CC1)C2 [(S,S)[^11C]HAPT-B] | non-specific binding in any site | does not bind to vesicular acetylcholine transporters
5 |  |  | Cc1cccc2c1C[C@H](N1CCN(c3ccccc3N)CC1)[C@@H](O)C2 [(S,S)[^11C]HAPT-A] | localized most significantly in the putamen | specifically bind to vesicular acetylcholine transporters
